According to patent US7615210B2, “Treatment of endometriosis” (Medical Research Council, priority 2003, dated 2009):
Values joined by “and” are separate entries in the source; they are usually repeats but may differ in a detail not shown here. Equal values may be shown once.

System: PK1 expression in endometrial tissue
Assay: PK1 expression in endometrial tissue incubated with progesterone, Taqman quantitative RT-PCR
Assay type: cell-based, human
Details: endometrial tissue (n=5), 1 μM progesterone, 24 hours, control ethanol; mean ± SEM; p<0.05
Protocol: RNA was extracted from endometrial biopsies obtained from across the menstrual cycle (n=35) using Tri Reagent (Sigma, Poole, UK) following the Manufacturer's instructions. RNA samples were quantified and were reverse transcribed using 5.5 mmol 1^−1 MgCl2, 0.5 mmol 1^−1 of each deoxynucleotide triphosphate (dNTP), 2.5 μmol 1^−1 random hexamers, ribonuclease inhibitor (0.4 U μl^−1) and 1.25 U μl^−1 Multiscribe reverse transcriptase (all from Applied Biosystems, Warrington, UK). RNA (400 ng) was added to each reverse transcription reaction and samples were incubated for 90 minutes at 25° C., 45 minutes at 48° C. and 5 minutes at 95° C. The reaction mix for the polymerase chain reaction (PCR) consisted of 1× mastermix, ribosomal 18S forward and reverse primers, Ribosomal 18S probe (50 nmol 1^−1; all from Applied Biosystems, Warrington, UK), forward and reverse primers for PK1, PK2, PKR1 and PKR2 (300 nmol 1^−1) and their probes (200 nmol 1^−1) (all from Biosource UK, Nivelles, Belgium). The reaction mix (48 μl) was aliquoted into tubes and 2 μl cDNA was added. Duplicate 24 μl samples plus positive and negative controls were placed in a PCR plate and wells were sealed with optical caps. […] Data were analysed and processed using Sequence Detector version 1.6.3 (Applied Biosystems, Warrington, UK) according to manufacturer's instructions. […]

## CC(=O)[C@H]1CC[C@H]2[C@@H]3CCC4=CC(=O)CC[C@]4(C)[C@H]3CC[C@]12C [progesterone]
  fold increase in PK1 expression compared with controls: 2.91 fold and 2.91(±0.75) fold
